Reference: patent US8383619B2, “Pharmaceutical compounds” (Astex Therapeutics Limited, priority 2008, dated 2013)

What was measured:
[1] = Liver homogenate stability; assay type: in vitro ADME; conditions: 1 μM, 37° C., 120 mins
From the text: (§1) The breakdown of a prodrug in vivo could occur in one or more of several different compartments including for example, but not limited to blood/plasma, liver, stomach, target tissue (e.g. tumour). The preferred location for optimum formation of the parent drug will depend on the disposition in vivo of the pro-drug and parent and an understanding of the optimum concentrations of each required in the circulation to maximise exposure to the active moiety in the target tissue. The potential for pro-drug molecules to deliver the active parent drug may be assessed in vitro by measuring the breakdown of a pro-drug in the presence of relevant body fluids. For the purpose of gaining a preliminary understanding of the stability of compounds of the invention to enzymatic hydrolysis in two such bodily compartments, compound turnover has been studied following incubation in whole blood and liver homogenate from mice and humans. The data obtained from these studies provide a preliminary understanding of which of the prodrugs are better able to deliver parent compound (i.e. are more rapidly broken down to parent compound) in these compartments. Further studies could also determine stability in other compartments (e.g. in the target tumours by measuring stability in tumour lysates).
Mouse livers were obtained from 20 male mice, strain: Balb/c from stock animals. Human liver tissue was obtained from 3 individuals sourced from a UK human tissue bank. The livers were stored frozen. The livers were defrosted and then homogenised to form a homogenate of approximately 30% (w/v) in phosphate buffer, 100 mM, pH 7.4 (referred to as ‘buffer’). Homogenates were kept on ice until use.
(§2) Each incubation consisted of a volume of 1 mL. Test compound dosing solutions were then spiked into each homogenate at a final compound concentration of 1 μM. Incubations were performed in the atmosphere in a shaking water bath at 37° C.
(§3) An aliquot of incubation samples was removed into an equal volume of ice-cold acetonitrile at various time points. Samples (whole blood/homogenate+acetonitrile) were centrifuged and aliquots of the supernatant were analysed by HPLC-MS/MS.
(§4) The compound X (2,4-dihydroxy-5-isopropyl-phenyl)-[5-(4-methyl-piperazin-1-ylmethyl)-1,3-dihydro-isoindol-2-yl]-methanone) and the compounds of Examples 1 to 24 were incubated in both whole blood and liver homogenate by Quotient Bioresearch (Rushden, UK). The percentage remaining of parent compound following incubation in whole blood/liver homogenate from human and mouse are set out in the table below.

Whole blood stability = assay type: in vitro ADME; conditions: 1 μM, 37° C., 120 mins
From the text: as §1
For these studies, human whole blood was collected from 3 male healthy volunteers in lithium heparin tubes. The blood was pooled and stored at room temperature for a maximum of 2 hours prior to initiation of incubations. Mouse blood was collected from 70 male mice, strain: Balb/c into lithium heparin tubes and pooled.
as §2, §3, §4

[2] = Tolerability, four consecutive daily doses; assay type: in vivo, mouse
[3] = Mouse pharmacokinetics, oral gavage; assay type: in vivo, Balb/c mice; conditions: compared with examples 16 and 11
Experimental: Balb/c mice are dosed with a prodrug by oral gavage. A single administration of one of the 24 examples is given and a dose volume of 10 mL/kg is used for PO doses.
Blood samples are collected in lithium heparin coated tubes at selected time points.
Plasma is isolated by centrifugation and frozen before analysis.
Plasma samples are prepared by liquid-liquid extraction with Acetonitrile containing internal standard. Quantification is by comparison with a standard calibration line constructed with each compound and using a LC-MS/MS method specific to each compound. Animals that had been dosed one of the 24 examples were analysed for prodrug and compound X (2,4-dihydroxy-5-isopropyl-phenyl)-[5-(4-methyl-piperazin-1-ylmethyl)-1,3-dihydro-isoindol-2-yl]-methanone). Pharmacokinetics parameters are calculated using WinNonLin® non compartmental analysis software.
The plasma AUC0.25-2 hrs after PO administration of selected examples are set out in the table below. For examples 16, 17 and 11, plasma AUC0.25-2 hrs was determined following a single dose of 120 μmoles/kg or 240 μmoles/kg.

| Structure (SMILES) | Percentage remaining Human Liver [1] [%] | Percentage remaining Mouse Liver [1] [%] | Percentage remaining Human blood (Whole blood stability) [%] | Percentage remaining Mouse blood (Whole blood stability) [%] | tolerability ([2]; four consecutive daily doses at 240 μmoles/kg) | tolerability ([2]; four consecutive daily doses at 120 μmoles/kg) | exposure of the active pharmaceutical agent relative to the starting dose [3] |
| --- | --- | --- | --- | --- | --- | --- | --- |
| CC(C)c1cc(C(=O)N2Cc3ccc(CN4CCN(C)CC4)cc3C2)c(OC(=O)N2CCOCC2)cc1O [Example 20, 2-[2-(morpholin-4-ylcarbonyloxy)-4-hydroxy-5-isopropyl-benzoyl]-5-(4-methyl-piperazin-1-ylmethyl)-1,3-dihydro-isoindole] | 23 | 45 | 97 | 16 |  |  |  |
| COc1cc(O)c(C(=O)N2Cc3ccc(CN4CCN(C)CC4)cc3C2)cc1C(C)C [Example 2, (2-Hydroxy-5-isopropyl-4-methoxy-phenyl)-[5-(4-methyl-piperazin-1-ylmethyl)-1,3-dihydro-isoindol-2-yl]-methanone] | 85 | 100 | 122 | 129 |  |  |  |
| CC(C)c1cc(C(=O)N2Cc3ccc(CN4CCN(C)CC4)cc3C2)c(OC(=O)OC(C)(C)C)cc1OC(=O)N(C)C [Example 22, Carbonic acid tert-butyl ester 5-dimethylcarbamoyloxy-4-isopropyl-2-[5-(4-methyl-piperazin-1-ylmethyl)-1,3-dihydro-isoindole-2-carbonyl]-phenyl ester] | 6 | 0 | 18 | 0 |  |  |  |
| C=CCOc1cc(O)c(C(=O)N2Cc3ccc(CN4CCN(C)CC4)cc3C2)cc1C(C)C [Example 5, (4-Allyloxy-2-hydroxy-5-isopropyl-phenyl)-[5-(4-methyl-piperazin-1-ylmethyl)-1,3-dihydro-isoindol-2-yl]-methanone] | 81 | 86 | 115 | 124 |  |  |  |
| CCN(CC)C(=O)Oc1cc(O)c(C(C)C)cc1C(=O)N1Cc2ccc(CN3CCN(C)CC3)cc2C1 [Example 14, Diethyl-carbamic acid 5-hydroxy-4-isopropyl-2-[5-(4-methyl-piperazin-1-ylmethyl)-1,3-dihydro-isoindole-2-carbonyl]-phenyl ester] | 88 | 89 | 94 | 94 |  |  |  |
| COCOc1cc(O)c(C(=O)N2Cc3ccc(CN4CCN(C)CC4)cc3C2)cc1C(C)C [Example 8, [2-Hydroxy-5-isopropyl-4-(methoxymethyloxy)-phenyl]-[5-(4-methyl-piperazin-1-ylmethyl)-1,3-dihydro-isoindol-2-yl]-methanone] | 102 | 79 | 114 | 104 |  |  |  |
| CC(C)c1cc(C(=O)N2Cc3ccc(CN4CCN(C)CC4)cc3C2)c(OC(=O)N(C)C)cc1OC(=O)N(C)C [Example 11, dimethyl-carbamic acid 5-dimethylcarbamoyloxy-2-isopropyl-4-[5-(4-methyl-piperazin-1-ylmethyl)-1,3-dihydro-isoindole-2-carbonyl]-phenyl ester] | 31 | 1 | 93 | 38 | well tolerated |  |  |
| CC(C)c1cc(C(=O)N2Cc3ccc(CN4CCN(C)CC4)cc3C2)c(O)cc1OC(=O)N(C)C [Example 17, dimethyl-carbamic acid 5-hydroxy-2-isopropyl-4-[5-(4-methyl-piperazin-1-ylmethyl)-1,3-dihydro-isoindole-2-carbonyl]-phenyl ester] | 0 | 0 | 90 | 24 |  | well tolerated | optimal exposure of the active pharmaceutical agent relative to the starting dose |
| C=CCOc1cc(OCC=C)c(C(C)C)cc1C(=O)N1Cc2ccc(CN3CCN(C)CC3)cc2C1 [Example 6, (2,4-Bis-allyloxy-5-isopropyl-phenyl)-[5-(4-methyl-piperazin-1-ylmethyl)-1,3-dihydro-isoindol-2-yl]-methanone] | 94 | 75 | 105 | 125 |  |  |  |
